System: patients with symptoms diagnosed as hypertension
Experiment: Antihypertensive drug response by beta-1 adrenergic receptor A145G genotype in hypertensive patients
Assay type: in vivo, human
Conditions: for Average Change in Blood Pressure: Sardinian hypertensive patients, atenolol 100 mg b.i.d., HCTZ 25 mg u.i.d. or fosinopril 20 mg u.i.d. for 2 months, change from baseline
Procedure: For our study, three drugs—fosinopril, atenolol, and hydrochlorothiazide—were administered to patients with symptoms diagnosed as hypertension (a diastolic blood pressure above 89 mmHg and a systolic blood pressure above 139 mmHg). Since essential hypertension is a complex multifactorial disease with an environmental component and a genetic interaction basis, we selected a […] patient sample from Sardinia, which ensured genetic homogeneity. Piazza, Science 260:1767-9 (1993). Patients were unrelated Sardinian from at least 2 generations. Approximately 75% of the patients were previously untreated for hypertension, whereas the remaining were absent from antihypertensive treatment for at least 6 months prior to testing, thus ensuring that modifications in blood pressure during the study were mostly due to the drug under study and not the spurious effects related to previous treatments.
After a 2-month pre-treatment period, during which blood pressure was measured periodically, patients with blood pressure (as average of 3 measurements performed in standard conditions) still over 140/90 (n=494) where randomly assigned to one of the following drugs: atenolol 100 mg b.i.d., hydrochlorothiazide (HCTZ) 25 mg u.i.d. or fosinopril 20 mg u.i.d. for 2 months. After a treatment was begun, patient blood pressure, heart rate and body weight were assessed every 2 weeks, and values at +4 and +8 weeks tabulated and considered for analysis.
Genomic DNA was extracted from the leukocytes of each individual using a genomic DNA extraction kit based on […]. Genomic DNA of the beta-1 adrenergic receptor gene was then amplified using standard PCR procedures. The PCR product was diluted 1:10 in EDTA 1 mM and then submitted for automated sequencing carried out with an Applied Biosystems Sequencer using dye primer chemistry.
To evaluate the association between each patient's genotype and the response of the individual to the respective drug, the change in blood pressure was analyzed from the baseline to the follow-up measurements at 4 and 8 weeks. A linear regression model was then used to adjust for the effect of baseline blood pressure levels and sex of the individual. The difference in average change of blood pressure between genotypes for each time interval was determined through analysis of covariance.

[1] = genotype AA (homozygous wild-type)
[2] = genotype GG (homozygous A145G variant)

| Compound | Average Change in Blood Pressure [1] | Average Change in Blood Pressure (genotype AG (heterozygous)) | Average Change in Blood Pressure [2] | relative blood pressure response between drugs (individuals homozygous for A145G (GG), analysis of covariance, adjusted for baseline blood pressure and sex) |
| --- | --- | --- | --- | --- |
| CC(C)NCC(O)COc1ccc(CC(N)=O)cc1 (stereo not shown) [Atenolol, atenolol] | −17.3 mmHg | −17.9 mmHg | −10.6 mmHg | – |
| CCC(=O)O[C@@H](O[P@](=O)(CCCCc1ccccc1)CC(=O)N1C[C@H](C2CCCCC2)C[C@H]1C(=O)O)C(C)C [Fosinopril, fosinopril] | −12.3 mmHg | −8.6 mmHg | −23.0 mmHg | – |
| NS(=O)(=O)c1cc2c(cc1Cl)NCNS2(=O)=O [Hydrochlorothiazide, hydrochlorothiazide] | −10.2 mmHg | −12.9 mmHg | −30.5 mmHg | more likely (p=0.0055) to experience a significant decrease in blood pressure |
